Measured values as given in patent publication US20250270200A1, “CTPS1 INHIBITORS AND USES THEREOF” (Nimbus Clotho, Inc., priority 2022, published 2025).
Values joined by “and” are separate entries in the source; they are usually repeats but may differ in a detail not shown here. Equal values may be shown once. Where a name gives a salt, the structure may show the parent alone.

Target: T1, human CTPS1 (Homo sapiens, UniProt P17812)
T1 sequence (P17812 1-591): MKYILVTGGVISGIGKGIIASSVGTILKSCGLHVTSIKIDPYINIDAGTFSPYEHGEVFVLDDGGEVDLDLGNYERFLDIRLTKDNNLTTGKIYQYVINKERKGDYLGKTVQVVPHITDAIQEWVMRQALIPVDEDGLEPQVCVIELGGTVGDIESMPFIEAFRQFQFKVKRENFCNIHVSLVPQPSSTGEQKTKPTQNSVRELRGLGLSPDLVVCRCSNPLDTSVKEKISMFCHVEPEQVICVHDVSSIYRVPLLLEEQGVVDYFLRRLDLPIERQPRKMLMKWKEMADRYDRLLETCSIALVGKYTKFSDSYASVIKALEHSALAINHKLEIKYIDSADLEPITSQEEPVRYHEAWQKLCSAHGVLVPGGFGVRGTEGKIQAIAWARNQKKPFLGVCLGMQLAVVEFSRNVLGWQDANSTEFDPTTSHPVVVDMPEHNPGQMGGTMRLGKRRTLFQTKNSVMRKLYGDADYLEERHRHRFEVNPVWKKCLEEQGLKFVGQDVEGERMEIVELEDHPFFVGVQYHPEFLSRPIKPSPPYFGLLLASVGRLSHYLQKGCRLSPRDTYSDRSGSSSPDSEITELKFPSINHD
Test: ADP-Glo assay, human CTPS1 enzyme inhibition
Type: biochemical
Conditions: wild-type human CTPS1 25 nM; ATP 120 μM, UTP 160 μM, GTP 60 μM, L-glutamine 100 μM; 25 degrees C.; read-out: ADP-Glo_WT_hCTPS1—25 nM_IC50 (IC50)
Procedure: The enzyme inhibitory activities of the compounds of the invention against the target of interest were determined using the ADP-Glo™ assay (Promega). Assays for human CTPS1 and CTPS2 were performed in 1× assay buffer containing 50 mM HEPES (Life Technologies), 10 mM Mg2+, 5 mM KCl, 2 mM DTT, 0.01% F-127, pH to 7.4 accordingly. All reagents are from Sigma-Aldrich, unless specified otherwise. Purified human full length active N-terminal FLAG-8×HIS-TEV tagged CTPS1 (UniprotKB—P17812, […]-CTPS1[1-591]) was generated using a mammalian expression system at Viva Biotech (Shanghai) Ltd.
Purified human CTPS1 protein was prepared in 1× assay buffer to the final working protein concentration required for the reaction. A 2.5 μL volume per well of human CTPS 1 protein was mixed with 0.1 μL per well of test compound dissolved in DMSO and pre-incubated at 25 degrees C. for 10 minutes. 2.5 μL per well of the reaction precursors ATP (UltraPure ATP from ADP-Glo™ kit) and UTP were then added and pre-incubated for an additional 10 minutes at 25 degrees C. Finally, the reaction was initiated by the addition of 5 μL of the reaction precursors L-glutamine and GTP. The final concentration of all reaction components in the assay: ATP (120 μM), UTP (160 μM), GTP (60 μM), L-Glutamine (100 μM), DMSO (1%), hCTPS1 (25 nM). This mixture was incubated for an appropriate amount of time within the determined linear phase of the reaction at 25 degrees C. under sealed plate conditions with constant agitation at 500 revolutions per minute (rpm). ADP-Glo™ reagent was added for 60 minutes (10 μL per well) and subsequently ADP-Glo™ development reagent was added for 60 minutes (20 μL per well) prior to signal detection in a microplate reader (Envision Multilabel Reader, Perkin Elmer). Following each reagent addition over the course of the assay, assay plates were pulse centrifuged for 1 minute at 1000 rpm.
The enzyme converts ATP to ADP and the ADP-Glo™ reagent subsequently depletes any remaining ATP in the reaction system. The ADP-Glo™ detection reagents converts the ADP that has been produced by the enzyme back into ATP, which is then utilized as a substrate together with luciferin for the enzyme luciferase. Light generated by this chemiluminescent reaction is quantified and is directly proportional to the amount of ADP produced by the CTPS1 enzyme reaction. […]

| IC50 [nM] | SMILES |
| --- | --- |
| 5 to 25 | CCOc1cncc(-c2cnc(C(=O)N[C@H](COC)c3cc(NS(=O)(=O)C4CC4)ncn3)s2)n1 (single isomer, unassigned) [II-8] |

Same assay, conditions: wild-type human CTPS1, 25 nM enzyme; ADP-Glo; read-out: ADP-Glo_WT_hCTPS1—25 nM_IC50 (IC50)

| SMILES | IC50 |
| --- | --- |
| CCOc1cncc(-c2cnc(C(=O)N[C@@H](CCNC3CC3)c3cc(NS(=O)(=O)C4CC4)ccn3)s2)n1 [I-185, (S)-N-(1-(4-(cyclopropanesulfonamido)pyridin-2-yl)-3-(cyclopropylamino)propyl)-5-(6-ethoxypyrazin-2-yl)thiazole-2-carboxamide] | 50 to 100 nM |
| O=C(N[C@@H](CCN1CCCCC1)c1cc(NS(=O)(=O)C2CC2)ccn1)c1ncc(-c2cnn3ccc(Cl)cc23)s1 (single isomer, unassigned) [I-9] | > 100 nM |
| CCOc1cncc(-c2cnc(C(=O)N[C@H](CN3CCOC[C@H]3C)c3cc(NS(=O)(=O)C4CC4)ccn3)s2)n1 (single isomer, unassigned) [I-33] | 5 to 25 nM |
| CCOc1cncc(-c2cnc(C(=O)N[C@@H](CN3CC[C@](C)(O)C3)c3cccc(NS(=O)(=O)C(F)F)c3)s2)n1 [I-209, N-((R)-1-(3-((difluoromethyl)sulfonamido)phenyl)-2-((S)-3-hydroxy-3-methylpyrrolidin-1-yl)ethyl)-5-(6-ethoxypyrazin-2-yl)thiazole-2-carboxamide, formic acid salt] | 5 to 25 nM |
| O=C(N[C@@H](c1cc(NS(=O)(=O)C2CC2)ccn1)C1CCOCC1)c1ncc(-c2cnn3ccc(Cl)cc23)s1 [I-86, (R)-5-(5-chloropyrazolo[1,5-a]pyridin-3-yl)-N-((4-(cyclopropanesulfonamido)pyridin-2-yl)(tetrahydro-2H-pyran-4-yl)methyl)thiazole-2-carboxamide] | 5 to 25 nM |
| CCOc1cncc(-c2cnc(C(=O)N[C@H](CCN3CCC(F)CC3)c3cc(NS(=O)(=O)C4CC4)ccn3)s2)n1 (single isomer, unassigned) [I-16] | 5 to 25 nM |
| CCOc1cncc(-c2cnc(C(=O)N[C@H](CN3C[C@H]4C[C@@H]3CO4)c3cccc(NS(=O)(=O)C(F)F)c3)s2)n1 [I-205, N-((S)-2-((1R,4R)-2-oxa-5-azabicyclo[2.2.1]heptan-5-yl)-1-(3-((difluoromethyl)sulfonamido)phenyl)ethyl)-5-(6-ethoxypyrazin-2-yl)thiazole-2-carboxamide, formic acid salt] | 25 to 50 nM |
| CCOc1cncc(-c2cnc(C(=O)N[C@@H](c3cc(NS(=O)(=O)C4CC4)ccn3)[C@@H](C)OC)s2)n1 [I-46, N-((1S,2R)-1-(4-(cyclopropanesulfonamido)pyridin-2-yl)-2-methoxypropyl)-5-(6-ethoxypyrazin-2-yl)thiazole-2-carboxamide] | 5 to 25 nM |
| CCOc1cncc(-c2cnc(C(=O)N[C@H](c3cc(NS(=O)(=O)C4CC4)ccn3)[C@H]3CN(C)CCO3)s2)n1 [I-97, N-((R)-(4-(cyclopropanesulfonamido)pyridin-2-yl)((R)-4-methylmorpholin-2-yl)methyl)-5-(6-ethoxypyrazin-2-yl)thiazole-2-carboxamide] | 25 to 50 nM and 5 to 25 nM |
| CCOc1cncc(-c2cnc(C(=O)N[C@@H](c3cc(NS(=O)(=O)C4CC4)ccn3)[C@H]3CN(C)CCO3)s2)n1 [I-100, N-((S)-(4-(cyclopropanesulfonamido)pyridin-2-yl)((R)-4-methylmorpholin-2-yl)methyl)-5-(6-ethoxypyrazin-2-yl)thiazole-2-carboxamide] | 5 to 25 nM |
| CCOc1cncc(-c2cnc(C(=O)N[C@H](c3cc(NS(=O)(=O)C4CC4)ccn3)C(C)(C)OC)s2)n1 [I-92, (R)-N-(1-(4-(cyclopropanesulfonamido)pyridin-2-yl)-2-methoxy-2-methylpropyl)-5-(6-ethoxypyrazin-2-yl)thiazole-2-carboxamide] | 25 to 50 nM |
| O=C(N[C@@H](CN1CCOCC1)c1cc(NS(=O)(=O)C2CC2)ccn1)c1ncc(-c2cnn3ccc(Cl)cc23)s1 [I-145, (S)-5-(5-chloropyrazolo[1,5-a]pyridin-3-yl)-N-(1-(4-(cyclopropanesulfonamido)pyridin-2-yl)-2-morpholinoethyl)thiazole-2-carboxamide] | 5 to 25 nM |

Other lines, results leading:

| IC50 | SMILES |
| --- | --- |
| 5 to 25 nM | C[C@@H](O)[C@H](NC(=O)c1ncc(-c2cnn3ccc(Cl)cc23)s1)c1cc(NS(=O)(=O)C2CC2)ccn1 [I-271, 5-(5-chloropyrazolo[1,5-a]pyridin-3-yl)-N-((1R,2R)-1-(4-(cyclopropanesulfonamido)pyridin-2-yl)-2-hydroxypropyl)thiazole-2-carboxamide] |
| 5 to 25 nM | CCOc1cncc(-c2cnc(C(=O)N[C@@H](c3cc(NS(=O)(=O)C4CC4)ccn3)[C@@H](C)COC)s2)n1 [I-235, N-((1R,2R)-1-(4-(cyclopropanesulfonamido)pyridin-2-yl)-3-methoxy-2-methylpropyl)-5-(6-ethoxypyrazin-2-yl)thiazole-2-carboxamide] |
| 5 to 25 nM | CCOc1cncc(-c2cnc(C(=O)N[C@H](CN(C)C)c3cccc(NS(=O)(=O)C(F)F)c3)s2)n1 [I-213, (S)-N-(1-(3-((difluoromethyl)sulfonamido)phenyl)-2-(dimethylamino)ethyl)-5-(6-ethoxypyrazin-2-yl)thiazole-2-carboxamide] |
| 5 to 25 nM | CCOc1cncc(-c2cnc(C(=O)N[C@@H](c3cc(NS(=O)(=O)C4CC4)ccn3)[C@@H]3CCCN3C)s2)n1 [I-117, N-((R)-(4-(cyclopropanesulfonamido)pyridin-2-yl)((S)-1-methylpyrrolidin-2-yl)methyl)-5-(6-ethoxypyrazin-2-yl)thiazole-2-carboxamide] |
| 5 to 25 nM | CCOc1cncc(-c2cnc(C(=O)N[C@H](CN3[C@@H]4CC[C@H]3COC4)c3cc(NS(=O)(=O)C4CC4)ccn3)s2)n1 (single isomer, unassigned) [I-37] |
| 5 to 25 nM | CCOc1cncc(-c2ccc(C(=O)N[C@@H](COC)c3cc(NS(=O)(=O)C4CC4)ccn3)cc2)n1 [I-279, (R)-N-(1-(4-(cyclopropanesulfonamido)pyridin-2-yl)-2-methoxyethyl)-4-(6-ethoxypyrazin-2-yl)benzamide] |
| 5 to 25 nM | CCOc1cncc(-c2cnc(C(=O)N[C@@H](c3cccc(NS(=O)(=O)C(F)F)c3)[C@@H]3COCCO3)s2)n1 [I-200, N-((S)-(3-((difluoromethyl)sulfonamido)phenyl)((R)-1,4-dioxan-2-yl)methyl)-5-(6-ethoxypyrazin-2-yl)thiazole-2-carboxamide] |
| 5 to 25 nM | CCOc1cncc(-c2ccc(C(=O)N[C@H](CCN3CCCCC3)c3cc(NS(=O)(=O)C4CC4)ccn3)c(F)c2F)n1 (single isomer, unassigned) [I-7] |
| 5 to 25 nM | CCOc1cncc(-c2cnc(C(=O)NC3(c4cc(NS(=O)(=O)C5CC5)ccn4)CCN(C)C3)s2)n1 (stereo not drawn) [I-182, N-(3-(4-(cyclopropanesulfonamido)pyridin-2-yl)-1-methylpyrrolidin-3-yl)-5-(6-ethoxypyrazin-2-yl)thiazole-2-carboxamide, formic acid salt] |
| ≤ 5 nM | CCOc1cncc(-c2cnc(C(=O)N[C@@H](c3cc(NS(=O)(=O)C4CC4)ccn3)[C@H]3CCN(CCF)C3)s2)n1 [I-110, N-((R)-(4-(cyclopropanesulfonamido)pyridin-2-yl)((S)-1-(2-fluoroethyl)pyrrolidin-3-yl)methyl)-5-(6-ethoxypyrazin-2-yl)thiazole-2-carboxamide] |
| ≤ 5 nM | C[C@H](CO)[C@@H](NC(=O)c1ncc(-c2cnn3ccc(Cl)cc23)s1)c1cc(NS(=O)(=O)C2CC2)ccn1 [I-230, 5-(5-chloropyrazolo[1,5-a]pyridin-3-yl)-N-((1R,2S)-1-(4-(cyclopropanesulfonamido)pyridin-2-yl)-3-hydroxy-2-methylpropyl)thiazole-2-carboxamide] |
